One series can be described thus: Acute toxicity test. Conditions: male, mouse, in vivo, iv, ddY mice, death rate up to 24 hours after administration. As for the experimental part:
Medicine was intravenously administered to ddY mice (male, 6 weeks old). The 50 percent lethal dosage LD50 of the acute toxicity was calculated by an ordinary method from the death rate up to 24 hours after administration.

The test system of another series is DBA/2N mice. Description: Audiogenic seizure suppressing action. The note with it: Mus musculus, ip, 20 min; compound 10 mg/kg, i.p.; audio stimulus after 20 minutes; suppression of average seizure score; read-out: Antiseizure action (suppression rate %). Type of series: in vivo. As for the experimental part:
Audiogenic Seizure Suppressing Action
The audiogenic seizure suppressing action of the compounds was evaluated by the method of Sarro et al. [G. B. De Sarro et al.; Br. J. Pharmacol., 93, 247 (1988)]. That is, DBA/2N mice (male, 3 weeks) were administered with the compound dissolved in 10% 2-hydroxypropyl-β-cyclodextrin intraperitoneally. After 20 minutes, a supersonic washer was used to apply audio stimulus of at least 90 dB for one minute. The wild running (WR), clonic seizures (clonus), tonic seizures (tonus), and respiratory arrest (RA) were evaluated. The seizure suppressing action was evaluated from the rate or suppression of the average value of the seizure score found from 0=no response, 1=WR, 2=clonus, 3=tonus, and 4=RA.

A further series relates to Na+ channel. Description: Veratridine-induced sodium channel activity inhibiting action (membrane potential of synaptosomes, Rhodamine 6G). Type of series: biochemical, Wistar rats. The note with it: 0.1 μM of compound; rat brain synaptosomes, veratridine-induced depolarization. As for the experimental part:
Veratridine-induced Sodium Channel Activity Inhibiting Action
The membrane potential of the synaptosomes prepared from the brain membrane of Wistar rats (male, 10 to 12 weeks old) was measured by the method of Aiuchi et al. [T. Aiuchi et al: Biochimi. Biophys. Acta.

A further series relates to T-type Ca2+ channel. Description: T-type calcium channel inhibiting action (whole-cell patch clamp, hippocampal CA1 pyramidal cells). Type of series: cell-based, Wistar rats. Conditions: rat hippocampal CA1 pyramidal cells; suppression of peak current after one minute of application. As for the experimental part:
T-Type Calcium Channel Inhibiting Action
The hippocampal CA1 pyramidal cells were isolated from Wistar rats (female, 1 week old) in accordance with the method of Takahashi et al. K. Takahashi et al.; J Pharmacol. Exp; Ther., 256, 169 (1991)] and the T-type calcium current under conditions of a fixed membrane potential was measured using the whole-cell configuration of the pach clamp technique. The effects of the compounds were evaluated from the rate of suppression of the peak current after one minute of application using the concentration clamp method.
(In patch-clamp work, channel activity is measured electrically.)

The target of another series is T1, Dopamine D2 receptor (Rattus norvegicus, UniProt P61169).
T1 construct: membrane fraction prepared from the striatum of Wister male rats; from tissue; host or cells: rat striatum membrane fraction
Description: Dopamine D2 receptor blocking action ([3H]raclopride binding, striatum membrane fraction). Further details: species or system Wister male rats. Conditions: 1.0 nM [3H]raclopride, 25° C., one hour. As for the experimental part: Dopamine D2 Receptor Blocking Action
57 μl of the membrane fraction prepared from the striatum of Wister male rats,(6 weeks old) was incubated in a buffer at 25° C. for one hour along with the compound and 1.0 nM [^3H) raclopride. A GF/C glass filter (0.1% polyethylene imine treatment) was used for separation of the B and F, then the radioactivity was measured by a beta plate and the effect of the compound was evaluated.

T1 sequence (P61169 whole entry): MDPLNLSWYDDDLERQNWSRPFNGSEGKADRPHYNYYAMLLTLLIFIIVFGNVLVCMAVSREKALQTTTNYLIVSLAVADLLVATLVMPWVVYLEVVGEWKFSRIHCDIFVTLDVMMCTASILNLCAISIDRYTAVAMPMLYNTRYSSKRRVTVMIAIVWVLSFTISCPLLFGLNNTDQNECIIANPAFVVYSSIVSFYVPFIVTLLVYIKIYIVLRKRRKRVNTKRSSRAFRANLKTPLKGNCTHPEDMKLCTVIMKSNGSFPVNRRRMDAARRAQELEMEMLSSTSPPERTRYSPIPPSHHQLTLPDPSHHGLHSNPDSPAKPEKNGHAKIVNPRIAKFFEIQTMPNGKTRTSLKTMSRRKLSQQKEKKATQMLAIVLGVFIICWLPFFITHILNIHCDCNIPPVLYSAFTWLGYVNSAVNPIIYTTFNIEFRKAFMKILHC

As usually defined, the LD50 is the dose expected to kill half of the subjects tested. Usually IC50 stands for the concentration at which inhibition is half-maximal. `c1ccc(Oc2ccc(C3CCN(C[C@@H]4C[C@H]4c4ccccc4)CC3)cc2)cc1` (relative stereo) [Compound 26, 4-(phenoxyphenyl)-1-[trans-(2-phenyl)cyclopropylmethyl]piperidine] came in with an LD50 at 24 h in the series “Acute toxicity test” of 32.9 mg/kg. The inhibition in vivo at 10 mg/kg with DBA/2N mice was found to be 78%. Moreover, the “Antiveratridine action (inhibiting rate %)” value with Na+ channel came out at 36.5%. The IC50 came to 2800 nM in the series with T-type Ca2+ channel and 3.37 µM at Dopamine D2 receptor.

Turning to `C(=C\c1ccccc1)/CN1CCC(c2ccc(Oc3ccccc3)cc2)CC1` [Compound 21, (E)-4-(4-phenoxyphenyl)-1-(3-phenyl-2-propenyl)piperidine], the LD50 at 24 h in the series “Acute toxicity test” was 40.9 mg/kg. Further, the inhibition in vivo at 10 mg/kg with DBA/2N mice was 77.3%. In addition, the “Antiveratridine action (inhibiting rate %)” value with Na+ channel worked out at 20.3%. The IC50 turned out to be 800 nM with T-type Ca2+ channel and 2.68 µM at Dopamine D2 receptor.

Consider `Fc1ccc(Cc2ccc(C3CCN(C/C=C/c4ccccc4)CC3)cc2)cc1` [Compound 32, (E)-4-[4-(4-fluorophenyl)methylphenyl]-1-(3-phenyl-2-propenyl)piperidine], for which the LD50 at 24 h in “Acute toxicity test” came to 32.9 mg/kg. The inhibition in vivo at 10 mg/kg in the series with DBA/2N mice amounted to 94%. In the series with Na+ channel, the “Antiveratridine action (inhibiting rate %)” value is reported as 33.3%. Besides, the IC50 in the series with T-type Ca2+ channel was found to be 600 nM; at Dopamine D2 receptor, 3.36 µM.

`Fc1ccc(Cc2ccc(N3CCN(C/C=C/c4ccccc4)CC3)cc2)cc1` [Compound 47]: the LD50 at 24 h in “Acute toxicity test” was 43.2 mg/kg. Further, the inhibition in vivo at 10 mg/kg in the series with DBA/2N mice is 64.1%. Also, the “Antiveratridine action (inhibiting rate %)” value with Na+ channel worked out at 22.9%. Besides, the IC50 turned out to be 2700 nM with T-type Ca2+ channel and 3.96 µM at Dopamine D2 receptor.

For `COc1cc(/C=C/CN2CCN(c3ccc(Cc4ccc(F)cc4)cc3)CC2)ccc1O` [Compound 49], in the series with DBA/2N mice, the inhibition in vivo at 10 mg/kg amounted to 60%. Further, the “Antiveratridine action (inhibiting rate %)” value with Na+ channel came out at 17.3%. The same molecule came in with an IC50 on Dopamine D2 receptor of 0.987 µM.

As to `Fc1ccc(/C=C/CN2CCN(c3ccc(Cc4ccc(F)cc4)cc3)CC2)cc1` [Compound 50, (E)-1-[4-(4-fluorophenyl)methylphenyl]-4-[3-(4-fluorophenyl)-2-propenyl]-piperazine], the inhibition in vivo at 10 mg/kg in the series on DBA/2N mice was 72%. Moreover, the IC50 in the series with T-type Ca2+ channel worked out at 4200 nM.

With `O=C(CN1CCC(c2ccc(Oc3ccccc3)cc2)CC1)c1ccc(F)cc1` [Compound 67, 1-[2-(4-fluorophenyl)-2-oxo]ethyl-4-(4-phenoxyphenyl)piperidine], the inhibition in vivo at 10 mg/kg in the series on DBA/2N mice was 37%. Besides, the “Antiveratridine action (inhibiting rate %)” value in the series on Na+ channel is reported as 15%.

Regarding `CC(C(=O)c1ccccc1)N1CCC(c2ccc(Oc3ccccc3)cc2)CC1` (stereo not drawn) [Compound 69, 1-(1-benzoylethyl)-4-(4-phenoxyphenyl)piperidine], in the series with DBA/2N mice, the inhibition in vivo at 10 mg/kg came to 64.7%. Also, the “Antiveratridine action (inhibiting rate %)” value in the series with Na+ channel is recorded as 11.2%.

Turning to `c1ccc(Oc2ccc(C3CCN(CC4(c5ccccc5)OCCO4)CC3)cc2)cc1` [Compound 73, 2-[4-(4-phenoxyphenyl)piperidin-1-yl]methyl-2-phenyl-1,3-dioxolane], the inhibition in vivo at 10 mg/kg in the series with DBA/2N mice worked out at 52.2%. The “Antiveratridine action (inhibiting rate %)” value in the series with Na+ channel stood at 16.1%. In addition, the IC50 in the series on T-type Ca2+ channel stood at 4600 nM.

Consider `ON=C(CN1CCC(c2ccc(Oc3ccccc3)cc2)CC1)c1ccccc1` [Compound 74, 4-(4-phenoxyphenyl)-1-(2-phenyl-2-hydroxyimino)ethylpiperidine], for which the inhibition in vivo at 10 mg/kg in the series with DBA/2N mice worked out at 44.4%. The “Antiveratridine action (inhibiting rate %)” value in the series with Na+ channel turned out to be 14.6%.

Consider `COc1ccc(Cc2ccc(C3CCN(C/C=C/c4ccccc4)CC3)cc2)cc1` [Compound 75, 4-[4-(4-methoxyphenyl)methylphenyl]-(E)-1-(3-phenyl-2-propenyl)piperidine], for which the inhibition in vivo at 10 mg/kg with DBA/2N mice was determined as 99%. The “Antiveratridine action (inhibiting rate %)” value in the series on Na+ channel stood at 55.2%. Besides, the IC50 with T-type Ca2+ channel came to 1400 nM.

In the case of `OC(CN1CCC(c2ccc(Oc3ccccc3)cc2)CC1)c1ccccc1` (stereo not drawn) [Compound 77, 1-(2-hydroxy-2-phenyl)-ethyl-4-(4-phenoxyphenyl)piperidine], in the series with DBA/2N mice, the inhibition in vivo at 10 mg/kg was determined as 85.7%. For the same molecule, the “Antiveratridine action (inhibiting rate %)” value in the series on Na+ channel is 31.1%.

Regarding `OC(CN1CCC(c2ccc(Oc3ccccc3)cc2)CC1)c1ccc(Cl)cc1` (stereo not drawn) [Compound 78, 1-[2-(4-chlorophenyl)-2-hydroxy]ethyl-4-(4-phenoxyphenyl)piperidine], in the series on DBA/2N mice, the inhibition in vivo at 10 mg/kg amounted to 66%. Also, the “Antiveratridine action (inhibiting rate %)” value with Na+ channel was 44.4%.

Turning to `OC(CN1CCC(c2ccc(Cc3ccc(F)cc3)cc2)CC1)c1ccccc1` (stereo not drawn) [Compound 79, 4-[4-(4-fluorophenyl)methylphenyl]-1-(2-hydroxy-2-phenyl)ethylpiperidine], the inhibition in vivo at 10 mg/kg with DBA/2N mice amounted to 79.8%. The “Antiveratridine action (inhibiting rate %)” value with Na+ channel worked out at 37.1%. For the same molecule, the half-inhibitory concentration (IC50) with T-type Ca2+ channel was found to be 3100 nM.

As for `OC(COc1ccccc1)CN1CCC(c2ccc(Oc3ccccc3)cc2)CC1` (stereo not drawn) [Compound 80, 1-(2-hydroxy-3-phenoxy)propyl-4-(4-phenoxyphenyl)piperidine], the inhibition in vivo at 10 mg/kg in the series on DBA/2N mice was 66.3%. Also, the “Antiveratridine action (inhibiting rate %)” value in the series with Na+ channel turned out to be 49.7%. Further, in the series with T-type Ca2+ channel, the IC50 worked out at 1900 nM.

`OC(COc1ccccc1)CN1CCC(c2ccc(Cc3ccc(F)cc3)cc2)CC1` (stereo not drawn) [Compound 81, 4-[4-(4-fluorophenyl)methylphenyl]-1-(2-hydroxy-3-phenoxy)propylpiperidine]: the inhibition in vivo at 10 mg/kg with DBA/2N mice amounted to 61%. In addition, the “Antiveratridine action (inhibiting rate %)” value in the series on Na+ channel stood at 24.1%.

`O=C(CN1CCN(c2ccc(Cc3ccc(F)cc3)cc2)CC1)c1ccccc1` [Compound 82, 1-[4-(4-fluorophenyl)methylphenyl]-4-(2-phenyl-2-oxo)ethylpiperazine]: the inhibition in vivo at 10 mg/kg in the series on DBA/2N mice is 71.9%. For the same molecule, the “Antiveratridine action (inhibiting rate %)” value with Na+ channel came out at 16.9%.

Values taken from US6469010B1, “Medicament for the alleviation or treatment of symptom derived from the ischemic disease and compound useful thereof” (Suntory Limited, priority 1995, dated 2002).
